Assays:
UACC-62 [1] = experiment: Cytotoxicity against human UACC62 cells assessed as cell growth at 10 uM after 48 hrs by sulforhodamine B assay relative to control; type: functional; details: UACC-62, 48 h, read-out: Activity
SNB-19 = experiment: Cytotoxicity against human SNB19 cells assessed as cell growth at 0.01 uM after 48 hrs by sulforhodamine B assay relative to control; type: functional; details: SNB-19, 48 h, read-out: Activity
UACC-257 [2] = experiment: Cytotoxicity against human UACC257 cells assessed as cell growth at 100 uM after 48 hrs by sulforhodamine B assay relative to control; type: functional; details: UACC-257, 48 h, read-out: Activity
NCI-H226 = experiment: Cytotoxicity against human NCI-H226 cells assessed as cell growth at 0.01 uM after 48 hrs by sulforhodamine B assay relative to control; type: functional; details: NCI-H226, 48 h, read-out: Activity
MDA-MB-468 = experiment: Cytotoxicity against human MDA-MB-468 cells assessed as cell growth at 0.01 uM after 48 hrs by sulforhodamine B assay relative to control; type: functional; details: MDA-MB-468, 48 h, read-out: Activity
RXF 393 = experiment: Cytotoxicity against human RXF393 cells assessed as cell growth at 0.1 uM after 48 hrs by sulforhodamine B assay relative to control; type: functional; details: RXF 393, 48 h, read-out: Activity
SK-OV-3 = experiment: Cytotoxicity against human SKOV3 cells assessed as cell growth at 0.01 uM after 48 hrs by sulforhodamine B assay relative to control; type: functional; details: SK-OV-3, 48 h, read-out: Activity
ACHN = experiment: Cytotoxicity against human ACHN cells assessed as cell growth at 0.1 uM after 48 hrs by sulforhodamine B assay relative to control; type: functional; details: read-out: Activity
SW-620 = experiment: Cytotoxicity against human SW620 cells assessed as cell growth at 0.01 uM after 48 hrs by sulforhodamine B assay relative to control; type: functional; details: SW-620, 48 h, read-out: Activity
IGROV-1 = experiment: Cytotoxicity against human IGROV1 cells assessed as cell growth at 10 uM after 48 hrs by sulforhodamine B assay relative to control; type: functional; details: IGROV-1, 48 h, read-out: Activity
MOLT-4 = experiment: Cytotoxicity against human MOLT4 cells assessed as cell growth at 0.01 uM after 48 hrs by sulforhodamine B assay relative to control; type: functional; details: MOLT-4, 48 h, read-out: Activity
SK-MEL-5 = experiment: Cytotoxicity against human SK-MEL-5 cells assessed as cell growth at 0.1 uM after 48 hrs by sulforhodamine B assay relative to control; type: functional; details: SK-MEL-5, 48 h, read-out: Activity
MCF7 [3] = experiment: Cytotoxicity against human MCF7 cells assessed as cell growth at 1 uM after 48 hrs by sulforhodamine B assay relative to control; type: functional; details: MCF7, 48 h, read-out: Activity
A498 [4] = experiment: Cytotoxicity against human A498 cells assessed as cell growth at 100 uM after 48 hrs by sulforhodamine B assay relative to control; type: functional; details: A498, 48 h, read-out: Activity
DU-145 = experiment: Cytotoxicity against human DU145 cells assessed as cell growth at 0.01 uM after 48 hrs by sulforhodamine B assay relative to control; type: functional; details: DU-145, 48 h, read-out: Activity
A498 [5] = experiment: Cytotoxicity against human A498 cells assessed as cell growth at 1 uM after 48 hrs by sulforhodamine B assay relative to control; type: functional; details: A498, 48 h, read-out: Activity
A549 = experiment: Cytotoxicity against human A549/ATCC cells assessed as cell growth at 1 uM after 48 hrs by sulforhodamine B assay relative to control; type: functional; details: A549, 48 h, read-out: Activity
UO-31 [6] = experiment: Cytotoxicity against human UO31 cells assessed as cell growth at 10 uM after 48 hrs by sulforhodamine B assay relative to control; type: functional; details: UO-31, 48 h, read-out: Activity
MDA-MB-231 = experiment: Cytotoxicity against human MDA-MB-231 cells assessed as cell growth at 1 uM after 48 hrs by sulforhodamine B assay relative to control; type: functional; details: MDA-MB-231, 48 h, read-out: Activity
SK-MEL-28 = experiment: Cytotoxicity against human SK-MEL-28 cells assessed as cell growth at 10 uM after 48 hrs by sulforhodamine B assay relative to control; type: functional; details: SK-MEL-28, 48 h, read-out: Activity
MCF7 [7] = experiment: Cytotoxicity against human MCF7 cells assessed as growth inhibition after 48 hrs by MTT assay; type: functional, cell-based; details: MCF7, 48 h
RPMI-8226 = experiment: Cytotoxicity against human RPMI8226 cells assessed as growth inhibition after 48 hrs by sulforhodamine B assay; type: functional; details: RPMI-8226, 48 h
OVCAR-3 = experiment: Cytotoxicity against human OVCAR3 cells assessed as cell growth at 0.1 uM after 48 hrs by sulforhodamine B assay relative to control; type: functional; details: OVCAR-3, 48 h, read-out: Activity
U-251 = experiment: Cytotoxicity against human U251 cells assessed as cell growth at 100 uM after 48 hrs by sulforhodamine B assay relative to control; type: functional; details: U-251, 48 h, read-out: Activity
UACC-62 [8] = experiment: Cytotoxicity against human UACC62 cells assessed as growth inhibition after 48 hrs by sulforhodamine B assay; type: functional; details: UACC-62, 48 h
UO-31 [9] = experiment: Cytotoxicity against human UO31 cells assessed as growth inhibition after 48 hrs by sulforhodamine B assay; type: functional; details: UO-31, 48 h
SR [10] = experiment: Cytotoxicity against human SR cells assessed as growth inhibition after 48 hrs by sulforhodamine B assay; type: functional
NCI-H522 = experiment: Cytotoxicity against human NCI-H522 cells assessed as growth inhibition after 48 hrs by sulforhodamine B assay; type: functional; details: NCI-H522, 48 h
786-0 [11] = experiment: Cytotoxicity against human 786-0 cells assessed as growth inhibition after 48 hrs by sulforhodamine B assay; type: functional; details: 786-0, 48 h
SR [12] = experiment: Cytotoxicity against human SR cells assessed as cell growth at 0.1 uM after 48 hrs by sulforhodamine B assay relative to control; type: functional; details: read-out: Activity
TK-10 = experiment: Cytotoxicity against human TK10 cells assessed as growth inhibition after 48 hrs by sulforhodamine B assay; type: functional; details: TK-10, 48 h
UACC-257 [13] = experiment: Cytotoxicity against human UACC257 cells assessed as cell growth at 10 uM after 48 hrs by sulforhodamine B assay relative to control; type: functional; details: UACC-257, 48 h, read-out: Activity
A498 [14] = experiment: Cytotoxicity against human A498 cells assessed as cell growth at 0.01 uM after 48 hrs by sulforhodamine B assay relative to control; type: functional; details: A498, 48 h, read-out: Activity
786-0 [15] = experiment: Cytotoxicity against human 786-0 cells assessed as cell growth at 0.01 uM after 48 hrs by sulforhodamine B assay relative to control; type: functional; details: 786-0, 48 h, read-out: Activity
BT-549 = experiment: Cytotoxicity against human BT549 cells assessed as cell growth at 10 uM after 48 hrs by sulforhodamine B assay relative to control; type: functional; details: BT-549, 48 h, read-out: Activity

Question: How did the growth at 10 µM (UACC-62 [1]) turn out when `COc1ccc(-c2cc(/C=C/C(=O)c3ccc(N)cc3)[nH]n2)cc1` was run?
Answer: -89%

Question: And the growth at 0.01 µM (SNB-19)?
Answer: 92%

Question: What about the growth at 100 µM (UACC-257 [2]) of the same compound?
Answer: -95%

Question: What about the growth at 0.01 µM (NCI-H226) of the same compound?
Answer: 102%

Question: What about the growth at 0.01 µM (MDA-MB-468) of the same compound?
Answer: 103%

Question: And the growth at 0.1 µM (RXF 393)?
Answer: 88%

Question: And the growth at 0.01 µM (SK-OV-3)?
Answer: 101%

Question: And the growth at 0.1 µM (ACHN)?
Answer: 105%

Question: What about the growth at 0.01 µM (SW-620) of the same compound?
Answer: 100%

Question: What about the growth at 10 µM (IGROV-1) of the same compound?
Answer: -21%

Question: And the growth at 0.01 µM (MOLT-4)?
Answer: 97%

Question: And the growth at 0.1 µM (SK-MEL-5)?
Answer: 90%

Question: What about the growth at 1 µM (MCF7 [3]) of the same compound?
Answer: 42%

Question: What about the growth at 100 µM (A498 [4]) of the same compound?
Answer: -96%

Question: What about the growth at 0.01 µM (DU-145) of the same compound?
Answer: 104%

Question: And the growth at 1 µM (A498 [5])?
Answer: 90%

Question: What about the growth at 1 µM (A549) of the same compound?
Answer: 84%

Question: What about the growth at 10 µM (UO-31 [6]) of the same compound?
Answer: -88%

Question: What about the growth at 1 µM (MDA-MB-231) of the same compound?
Answer: 78%

Question: And the growth at 10 µM (SK-MEL-28)?
Answer: -60%

Question: What about the IC50 (MCF7 [7]) of the same compound?
Answer: 800 nM

Question: And the GI50 (RPMI-8226)?
Answer: 600 nM

Question: And the LC50 (RPMI-8226)?
Answer: 29.4 µM

Question: What about the TGI (RPMI-8226) of the same compound?
Answer: 3.22 µM

Question: What about the growth at 0.1 µM (OVCAR-3) of the same compound?
Answer: 96%

Question: And the growth at 100 µM (U-251)?
Answer: -100%

Question: And the GI50 (UACC-62 [8])?
Answer: 1480 nM

Question: And the LC50 (UACC-62 [8])?
Answer: 5.84 µM

Question: What about the TGI (UACC-62 [8]) of the same compound?
Answer: 2940 nM

Question: And the GI50 (UO-31 [9])?
Answer: 1180 nM

Question: What about the LC50 (UO-31 [9]) of the same compound?
Answer: 5.54 µM

Question: What about the TGI (UO-31 [9]) of the same compound?
Answer: 2560 nM

Question: And the GI50 (SR [10])?
Answer: 790 nM

Question: What about the TGI (SR [10]) of the same compound?
Answer: 6.09 µM

Question: And the CC50 (SR [10]; read-out: LC50 (the source's name))?
Answer: 60.1 µM

Question: And the GI50 (NCI-H522)?
Answer: 1210 nM

Question: And the LC50 (NCI-H522)?
Answer: 7.03 µM

Question: What about the TGI (NCI-H522) of the same compound?
Answer: 2910 nM

Question: What about the GI50 (786-0 [11]) of the same compound?
Answer: 2120 nM

Question: And the LC50 (786-0 [11])?
Answer: 58.1 µM

Question: What about the TGI (786-0 [11]) of the same compound?
Answer: 5.69 µM

Question: What about the growth at 0.1 µM (SR [12]) of the same compound?
Answer: 98%

Question: What about the GI50 (TK-10) of the same compound?
Answer: 2810 nM

Question: And the LC50 (TK-10)?
Answer: 39.8 µM

Question: What about the TGI (TK-10) of the same compound?
Answer: 13 µM

Question: What about the growth at 10 µM (UACC-257 [13]) of the same compound?
Answer: -54%

Question: What about the growth at 0.01 µM (A498 [14]) of the same compound?
Answer: 88%

Question: And the growth at 0.01 µM (786-0 [15])?
Answer: 96%

Question: And the growth at 10 µM (BT-549)?
Answer: -37%

— ChEMBL document CHEMBL4138123, “Design, synthesis and biological evaluation of novel pyrazolochalcones as potential modulators of PI3K/Akt/mTOR pathway and inducers of apoptosis in breast cancer cells” (Eur J Med Chem, 2017)
